Assay results from patent US5449814A, “Lignan analogues, methods of preparation thereof and anti-hyperlipemic agents” (Shionogi & Co., Ltd., priority 1991, dated 1995).
pIC50: −log10 of the molar value. Where two headings read alike, the source gives them in different places.

Assays:
LDL = assay: Inhibitory effect on oxidative modification of LDL (copper-induced, TBA reactive substances); assay type: biochemical, New Zealand albino rabbits; settings: rabbit LDL 0.2 mg protein/ml, 0.5 μM Cu^2+, 37° C., 24 hours; read-out: Inhibition of LDL oxidation IC50
Method: Inhibitory effect on oxidative modification of LDL
According to the method by Kita et al. (Proc. Natl. Acad. Sci., U.S.A, Vol. 84, 5928 (1987)), the experiment was proceeded as follows.
LDL was isolated from the blood of New Zealand albino rabbits fed with a diet containing 0.5% cholesterol for 3 weeks, and dissolved in phosphate-buffered physiological saline (final LDL concentration: 0.2 mg protein/ml). To this solution, each test compound in ethanol was added and then copper sulfate (final Cu^2+ concentration: 0.5 μM) was added thereto. The mixture was incubated at 37° C. for 24 hours.
After incubation, the content of lipid peroxides in each solution was determined as thiobarbituric acid reactive substances (TBA reactive substances). Concentration for 50% inhibition (IC50) was obtained from a linear regression curve of concentration of a compound versus % inhibition of oxidative modification of LDL. To quantify TBA reactive substances, proteins were removed from the solution after incubation, and the supernatant was examined for the content of TBA reactive substances by TBA method.

cholesterol in serum = assay: Hypocholesterolemic effect in cholesterol-fed mice; assay type: in vivo, Male ICR mice; settings: Mus musculus, po, 168 h, diet 1% cholesterol and 0.5% sodium cholate with 0.12% test compound, 7 days
Method: Hypocholesterolemic effect
Male ICR mice weighing 30 to 40 g were allowed to access to a diet containing 1% cholesterol and 0.5% sodium cholate supplemented with 0.12% of a test compound (no test compound in control group) ad libitum for 7 days. Then, the blood was taken and total cholesterol in serum was determined by the method of Allain (Clin. Chem., Vol. 20, 470 (1974)).
Total amount of VLDL cholesterol and LDL cholesterol was obtained by subtracting HLD cholesterol from total cholesterol. HLD cholesterol was quantified by the method of Ash and Hentschel et al. (Clin. Chem., Vol. 24, 2180 (1978)).
Hypocholesterolemic effect of a test compound was evaluated based on % reduction in cholesterol calculated using the equation shown below.

[1] = serum, read-out: Total Chol. reduction (%)
[2] = total minus HDL cholesterol, read-out: (VLDL + LDL) Chol. reduction (%)

Structure (SMILES) | pIC50 (LDL) | inhibition in vivo at 0.12 % in diet (cholesterol in serum; [1]) [%] | inhibition in vivo at 0.12 % in diet (cholesterol in serum; [2]) [%]
COC(=O)c1c(C(=O)c2ccc(F)cc2)c(O)c2cc(OC)c(OC)c(OC)c2c1-c1ccc(OC)c(OC)c1 [Example 26, 1-(3,4-Dimethoxyphenyl)-3-(4-fluorobenzoyl)-4-hydroxy-2-methoxycarbonyl-6,7,8-trimethoxynaphthalene] | 6.10 | 10 | 54
CCC(=O)c1c(C(=O)OC)c(-c2ccc(OC)c(OC)c2)c2c(OC)c(OC)c(OC)cc2c1O [Example 16, 1-(3,4-Dimethoxyphenyl)-4-hydroxy-2-methoxycarbonyl-3-(1-oxopropyl)-6,7,8-trimethoxynaphthalene] | 5.73 | 26 | 56
CCC(CC)C(=O)c1c(C(=O)OC)c(-c2ccc(OC)c(OC)c2)c2c(OC)c(OC)c(OC)cc2c1O [Example 4, 1-(3,4-Dimethoxyphenyl)-3-(2-ethyl-1-oxobutyl)-4-hydroxy-2-methoxycarbonyl-6,7,8-trimethoxynaphthalene] | 6.19 | 28 | 78
COC(=O)c1c(C(=O)c2ccccc2)c(O)c2cc(OC)c(OC)c(OC)c2c1-c1ccc(OC)c(OC)c1 [Example 6, 3-Benzoyl-1-(3,4-dimethoxyphenyl)-4-hydroxy-2-methoxycarbonyl-6,7,8-trimethoxynaphthalene] | 6.74 | 16 | 55
COC(=O)c1c(C(=O)C(C)C)c(O)c2cc(OC)c(OC)c(OC)c2c1-c1ccc(OC)c(OC)c1 [Example 3, 1-(3,4-Dimethoxyphenyl)-4-hydroxy-2-methoxycarbonyl-3-(2-methyl-1-oxopropyl)-6,7,8-trimethoxynaphthalene] | 6.92 | 21 | 57
CCC(CC)CC(=O)c1c(C(=O)OC)c(-c2ccc(OC)c(OC)c2)c2sccc2c1O [Example 15, 7-(3,4-Dimethoxyphenyl)-5-(3-ethyl-1-oxopentyl)-4-hydroxy-6-(methoxycarbonyl)benzo[b]thiophene] | 5.10 | 23 | 43
CCC(CC)CC(=O)c1c(C(=O)OC)c(-c2ccc(OC)c(OC)c2)c2c(OC)c(OC)c(OC)cc2c1O [Example 1, 1-(3,4-dimethoxyphenyl)-3-(3-ethyl-1-oxopentyl)-4-hydroxy-2-methoxycarbonyl-6,7,8-trimethoxynaphthalene] | 6.40 | 35 | 72
COC(=O)c1c(C(=O)c2ccc(OC)c(OC)c2)c(O)c2cc(OC)c(OC)c(OC)c2c1-c1ccc(OC)c(OC)c1 [Example 24, 3-(3,4-Dimethoxybenzoyl)-1-(3,4-dimethoxyphenyl)-4-hydroxy-2-methoxycarbonyl-6,7,8-trimethoxynaphthalene] | 6.01 | 11 | 54
COC(=O)c1c(C(=O)C2CCCCC2)c(O)c2cc(OC)c(OC)c(OC)c2c1-c1ccc(OC)c(OC)c1 [Example 5, 3-Cyclohexanoyl-1-(3,4-dimethoxyphenyl)-4-hydroxy-2-methoxycarbonyl-6,7,8-trimethoxynaphthalene] | 6.34 | 22 | 61
COC(=O)c1c(C(=O)Cc2ccccc2)c(O)c2cc(OC)c(OC)c(OC)c2c1-c1ccc(OC)c(OC)c1 [Example 8, 1-(3,4-Dimethoxyphenyl)-4-hydroxy-2-methoxycarbonyl-3-(2-phenyl-1-oxoethyl)-6,7,8-trimethoxynaphthalene] | 5.33 | 17 | 50

The next lines start with results.

pIC50 (LDL) | Structure (SMILES) | inhibition in vivo at 0.12 % in diet (cholesterol in serum; [1]) [%] | inhibition in vivo at 0.12 % in diet (cholesterol in serum; [2]) [%]
5.15 | CCC(CC)C(=O)c1c(C)c(-c2ccc(OC)c(OC)c2)c2c(OC)c(OC)c(OC)cc2c1O [Example 64, 1-(3,4-dimethoxyphenyl)-3-(2-ethyl-1-oxobutyl)-4-hydroxy-2-methyl-6,7,8-trimethoxynaphthalene] | 2 | 39
4.77 | CCC(=O)c1c(C(=O)OC)c(-c2ccc(OC)cc2OC)c2c(OC)c(OC)c(OC)cc2c1O [Example 41, 1-(2,4-Dimethoxyphenyl)-4-hydroxy-2-methoxycarbonyl-3-(1-oxopropyl)-6,7,8-trimethoxynaphthalene] | 11 | 41
6.23 | CCC(=O)c1c(C(=O)OC)c(-c2ccc(OC)c(OC)c2)c2c(OC)c(OC)c(OC)c(C)c2c1O [Example 72, 1-(3,4-dimethoxyphenyl)-3-(1-oxopropyl)-4-hydroxy-2-methoxycarbonyl-5-methyl-6,7,8-trimethoxynaphthalene] | 20 | 64
5.68 | CCC(=O)c1c(C(=O)OC)c(-c2ccc(OC)c(OC)c2)c2cc(OC(C)C)c(OC(C)C)cc2c1O [Example 38, 6,7-Bis(2-propyloxy)-1-(3,4-dimethoxyphenyl)-4-hydroxy-2-methoxycarbonyl-3-(1-oxopropyl)naphthalene] | 26 | 61
5.05 | COc1ccc(-c2c(C)c(C(=O)c3ccc(C(F)(F)F)cc3)c(O)c3cc(OC)c(OC)c(OC)c23)cc1OC [Example 62, 1-(3,4-dimethoxyphenyl)-4-hydroxy-2-methyl-3-[4-(trifluoromethyl)benzoyl]-6,7,8-trimethoxynaphthalene] | 27 | 59
5.22 | CCC(CC)CC(=O)c1c(C(=O)OC)c(-c2ccc(OC)c(OC)c2)c2c(OC)c(OC)c(OC)c(CO)c2c1O [Example 71, 1-(3,4-dimethoxyphenyl)-3-(3-ethyl-1-oxopentyl)-4-hydroxy-5-hydroxymethyl-2-methoxycarbonyl-6,7,8-trimethoxynaphthalene] | 16 | 44
5.66 | CCC(CC)CC(=O)c1c(C(=O)OC)c(-c2ccc(OC)c(OC)c2)c2cc3c(cc2c1O)OCCO3 [Example 36, 1-(3,4-Dimethoxyphenyl)-6,7-ethylenedioxy-3-(3-ethyl-1-oxopentyl)-4-hydroxy-2-(methoxycarbonyl)naphthalene] | 21 | 49
5.21 | COC(=O)c1c(C(=O)c2ccc(C(F)(F)F)cc2)c(O)c2cc3c(cc2c1-c1ccc(OC)cc1OC)OCO3 [Example 46, 1-(2,4-Dimethoxyphenyl)-4-hydroxy-2-methoxycarbonyl-6,7-methylenedioxy-3-[4-(trifluoromethyl)benzoyl]naphthalene] | 5 | 47
6.07 | COC(=O)c1c(C(=O)C(F)(F)C(F)(F)F)c(O)c2cc(OC)c(OC)c(OC)c2c1-c1ccc(OC)c(OC)c1 [Example 31, 1-(3,4-Dimethoxyphenyl)-4-hydroxy-2-methoxycarbonyl-3-(pentafluoro-1-oxopropyl)-6,7,8-trimethoxynaphthalene] | 15 | 41
5.83 | CCC(CC)C(=O)c1c(C(F)(F)F)c(-c2ccc(OC)c(OC)c2)c2c(OC)c(OC)c(OC)cc2c1O [Example 66, 1-(3,4-Dimethoxyphenyl)-3-(2-ethyl-1-oxobutyl)-4-hydroxy-2-(trifluoromethyl)-6,7,8-trimethoxynaphthalene] | 9 | 36
5.77 | CCC(CC)CC(=O)c1c(C(=O)OC)c(-c2ccc(OC)cc2OC)c2c(OC)c(OC)c(OC)cc2c1O [Example 42, 1-(2,4-Dimethoxyphenyl)-3-(3-ethyl-1-oxopentyl)-4-hydroxy-2-methoxycarbonyl-6,7,8-trimethoxynaphthalene] | 5 | 26
5.89 | CCC(=O)c1c(C(=O)OC)c(-c2ccc(OC)c(OC)c2)c2sc(CC)c(OC)c2c1O [Example 56, 7-(3,4-Dimethoxyphenyl)-2-ethyl-4-hydroxy-3-methoxy-6-methoxycarbonyl-5-(1-oxopropyl)benzo[b]thiophene] | 20 | 58
5.59 | COC(=O)c1c(C(=O)C(C)C)c(O)c2c(OC)c(OC)c(OC)c(OC)c2c1-c1ccc(OC)c(OC)c1 [Example 77, 1-(3,4-dimethoxyphenyl)-3-(2-methyl-1-oxopropyl)-4-hydroxy-2-methoxycarbonyl-5,6,7,8-tetramethoxynaphthalene] | 18 | 53
